Source: PubChem BioAssay AID248 (DTP/NCI, 2004)
“And” between values parts separate entries of the source, which are not always exact repeats. Equal entries are not always repeated. Inconclusive results and toxic doses are left out. Rule as the data show it: active = T/C of 150% or more; inactive = T/C below 125%.

System: L1210 leukemia ip in BDF1 mice, survival T/C
Experiment: NCI In Vivo Anticancer Drug Screen. Data for tumor model L1210 Leukemia (intraperitoneal) in B6D2F1 (BDF1) mice
Conditions: endpoint: mean survival time, higher = longer survival
Procedure, shortened: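 Tumor cells were implanted, animals were treated, and survival was followed. The result divides the treated measurement by the vehicle-control measurement.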

[1] = dose: 50.0 mg/kg/injection, schedule: Q04DX002 (ip), vehicle: Klucel (hydroxypropylcellulose) (HPC)
[2] = dose: 100.0 mg/kg/injection, schedule: Q04DX002 (ip), vehicle: Klucel (hydroxypropylcellulose) (HPC)
[3] = dose: 100.0 mg/kg/injection, schedule: Q04DX003 (ip), vehicle: Klucel (hydroxypropylcellulose) (HPC)
[4] = dose: 200.0 mg/kg/injection, schedule: Q04DX003 (ip), vehicle: Klucel (hydroxypropylcellulose) (HPC)
[5] = dose: 400.0 mg/kg/injection, schedule: Q04DX003 (ip), vehicle: Klucel (hydroxypropylcellulose) (HPC)
[6] = dose: 100.0 mg/kg/injection, schedule: Q01DX001 (ip), vehicle: Klucel (hydroxypropylcellulose) (HPC)
[7] = dose: 200.0 mg/kg/injection, schedule: Q01DX001 (ip), vehicle: Klucel (hydroxypropylcellulose) (HPC)
[8] = dose: 400.0 mg/kg/injection, schedule: Q01DX001 (ip), vehicle: Klucel (hydroxypropylcellulose) (HPC)
[9] = dose: 200.0 mg/kg/injection, schedule: Q04DX002 (ip), vehicle: Klucel (hydroxypropylcellulose) (HPC)
[10] = dose: 400.0 mg/kg/injection, schedule: Q04DX002 (ip), vehicle: Klucel (hydroxypropylcellulose) (HPC)
[11] = dose: 100.0 mg/kg/injection, schedule: Q04DX003 (ip), vehicle: saline with Tween-80
[12] = dose: 200.0 mg/kg/injection, schedule: Q04DX003 (ip), vehicle: saline with Tween-80
[13] = dose: 400.0 mg/kg/injection, schedule: Q04DX003 (ip), vehicle: saline with Tween-80
[14] = dose: 100.0 mg/kg/injection, schedule: Q01DX009 (ip), vehicle: saline with Tween-80
[15] = dose: 200.0 mg/kg/injection, schedule: Q01DX009 (ip), vehicle: saline with Tween-80

Measured: T/C

O=C(O)c1cccc2c1oc1c(O)cccc12
inactive: dose: 25.0 mg/kg/injection, schedule: Q04DX002 (ip), vehicle: Klucel (hydroxypropylcellulose) (HPC) 93 % of control | [1] 90 % of control | [2] 93 % of control

NNCC(F)(F)C(F)(F)C(F)(F)C(F)(F)C(F)(F)C(F)(F)C(F)(F)C(F)F
inactive: dose: 100.0 mg/kg/injection, schedule: Q01DX009 (ip), vehicle: DMSO 91 % of control | dose: 100.0 mg/kg/injection, schedule: Q04DX003 (ip), vehicle: DMSO 89 % of control | dose: 200.0 mg/kg/injection, schedule: Q01DX009 (ip), vehicle: DMSO 92 % of control | dose: 200.0 mg/kg/injection, schedule: Q04DX003 (ip), vehicle: DMSO 88 % of control | dose: 400.0 mg/kg/injection, schedule: Q04DX003 (ip), vehicle: DMSO 94 % of control

Nc1nc(N)[n+]([O-])c(N)c1NCO
inactive: dose: 88.0 mg/kg/injection, schedule: Q01DX001 (ip), vehicle: other 101 % of control | dose: 100.0 mg/kg/injection, schedule: Q01DX001 (ip), vehicle: other 97 % of control | dose: 133.0 mg/kg/injection, schedule: Q01DX001 (ip), vehicle: other 103 % of control | dose: 300.0 mg/kg/injection, schedule: Q01DX001 (ip), vehicle: other 103 % of control | dose: 400.0 mg/kg/injection, schedule: Q01DX001 (ip), vehicle: other 94 % of control

Nc1ncnc(N)c1NC(=O)c1ccc(OCc2ccccc2)c(Br)c1
inactive: dose: 100.0 mg/kg/injection, schedule: Q01DX001 (ip), vehicle: saline with Tween-80 93 % of control | dose: 200.0 mg/kg/injection, schedule: Q01DX001 (ip), vehicle: saline with Tween-80 97 % of control | dose: 400.0 mg/kg/injection, schedule: Q01DX001 (ip), vehicle: saline with Tween-80 96 % of control

c1ccc2snnc2c1
inactive: dose: 20.0 mg/kg/injection, schedule: Q01DX001 (ip), vehicle: saline 102 % of control | dose: 40.0 mg/kg/injection, schedule: Q01DX001 (ip), vehicle: saline 104 % of control | dose: 80.0 mg/kg/injection, schedule: Q01DX001 (ip), vehicle: saline 98 % of control

O=[N+]([O-])c1ccc(Oc2c(Cl)cccc2Cl)cc1
inactive: [3] 96 % of control | [4] 95 % of control | [5] 96 % of control

NNC(=S)Nc1cccc2ccccc12
inactive: dose: 75.0 mg/kg/injection, schedule: Q01DX001 (ip), vehicle: carboxymethylcellulose (CMC) 93 % of control | dose: 150.0 mg/kg/injection, schedule: Q01DX001 (ip), vehicle: carboxymethylcellulose (CMC) 93 % of control

CC(=N\N=C(N)N)/C(=N/N=C(N)N)c1ccccc1
inactive: dose: 3.75 mg/kg/injection, schedule: Q01DX Z (ip), vehicle: saline 92 % of control | dose: 7.5 mg/kg/injection, schedule: Q01DX Z (ip), vehicle: saline 96 % of control | dose: 15.0 mg/kg/injection, schedule: Q01DX Z (ip), vehicle: saline 95 % of control and 102 % of control | dose: 30.0 mg/kg/injection, schedule: Q01DX Z (ip), vehicle: saline 92 % of control | dose: 240.0 mg/kg/injection, schedule: Q01DX009 (oral), vehicle: saline 88 % of control

O=C(O)/C=C/S(=O)(=O)Cc1ccccc1
inactive: [3] 98 % of control | [4] 100 % of control

COc1ccccc1NC(=O)C(C(C)=O)C(c1cccc([N+](=O)[O-])c1)C(C(C)=O)C(=O)Nc1ccccc1OC (centres undefined)
inactive: dose: 100.0 mg/kg/injection, schedule: Q01DX001 (ip), vehicle: saline 96 % of control | dose: 200.0 mg/kg/injection, schedule: Q01DX001 (ip), vehicle: saline 96 % of control | dose: 400.0 mg/kg/injection, schedule: Q01DX001 (ip), vehicle: saline 89 % of control

CCOC(=O)/C(C#N)=C\c1ccc(N(CC)CC)cc1
inactive: [6] 91 % of control | [7] 86 % of control | [8] 89 % of control

CCCOC1=C(Br)C(=O)c2ccccc2C1=O
inactive: dose: 15.0 mg/kg/injection, schedule: Q01DX001 (ip), vehicle: carboxymethylcellulose (CMC) 98 % of control | dose: 30.0 mg/kg/injection, schedule: Q01DX001 (ip), vehicle: carboxymethylcellulose (CMC) 97 % of control

O=C1OC2CCCCC2/C1=C/N1CCCCC1 (centres undefined)
inactive: dose: 5.0 mg/kg/injection, schedule: Q04DX002 (ip), vehicle: Klucel (hydroxypropylcellulose) (HPC) 92 % of control | dose: 10.0 mg/kg/injection, schedule: Q04DX002 (ip), vehicle: Klucel (hydroxypropylcellulose) (HPC) 102 % of control | dose: 20.0 mg/kg/injection, schedule: Q04DX002 (ip), vehicle: Klucel (hydroxypropylcellulose) (HPC) 107 % of control | dose: 40.0 mg/kg/injection, schedule: Q04DX002 (ip), vehicle: Klucel (hydroxypropylcellulose) (HPC) 93 % of control | [1] 103 % of control | [9] 102 % of control and 103 % of control | [10] 88 % of control

CCC(=O)c1ccc(OCC(O)CN2CCN(c3ccccc3OC)CC2)cc1 (centres undefined)
inactive: [11] 96 % of control | [12] 96 % of control | [13] 103 % of control

CCC[CH2][Sn]([I])([CH2]C)[CH2]C
inactive: [2] 90 % of control | [10] 101 % of control

Cn1nnc2c1C(=O)c1ccccc1C2=O
inactive: dose: 100.0 mg/kg/injection, schedule: Q04DX003 (ip), vehicle: other 97 % of control | dose: 200.0 mg/kg/injection, schedule: Q04DX003 (ip), vehicle: other 97 % of control

Cc1ccc(S(=O)(=O)OCCOS(=O)(=O)c2ccc(C)cc2)cc1
inactive: [3] 90 % of control | [4] 87 % of control

CNC(=O)OCC1=CC(=O)C(OC)=CC1=O
inactive: dose: 0.37 mg/kg/injection, schedule: Q01DX009 (ip), vehicle: Klucel (hydroxypropylcellulose) (HPC) 91 % of control | dose: 0.75 mg/kg/injection, schedule: Q01DX009 (ip), vehicle: Klucel (hydroxypropylcellulose) (HPC) 98 % of control | dose: 12.5 mg/kg/injection, schedule: Q04DX003 (ip), vehicle: Klucel (hydroxypropylcellulose) (HPC) 92 % of control | dose: 25.0 mg/kg/injection, schedule: Q01DX009 (ip), vehicle: Klucel (hydroxypropylcellulose) (HPC) 88 % of control | dose: 25.0 mg/kg/injection, schedule: Q04DX003 (ip), vehicle: Klucel (hydroxypropylcellulose) (HPC) 103 % of control

NS(=O)(=O)c1ccc(NC(=O)Nc2cccc(CNC(=O)Cc3ccc(Cl)cc3C(=O)O)c2)cc1
inactive: dose: 50.0 mg/kg/injection, schedule: Q01DX001 (ip), vehicle: Klucel (hydroxypropylcellulose) (HPC) 104 % of control | [6] 109 % of control | [7] 90 % of control

CC(=O)OC1CC2(CO2)C2CC=C(C)C2C2OC(=O)C(C)C12 (centres undefined)
inactive: dose: 12.5 mg/kg/injection, schedule: Q04DX002 (ip), vehicle: saline 110 % of control | dose: 25.0 mg/kg/injection, schedule: Q04DX002 (ip), vehicle: saline 100 % of control | dose: 50.0 mg/kg/injection, schedule: Q04DX002 (ip), vehicle: saline 95 % of control | [2] 90 % of control | [9] 100 % of control

CS(=O)(=O)c1ccc(F)cc1
inactive: [3] 103 % of control | [4] 103 % of control | [5] 97 % of control

O=C(NC(CO)CCCO)c1ccc([N+](=O)[O-])cc1 (centres undefined)
inactive: [3] 108 % of control | [4] 86 % of control | [5] 96 % of control

CC(C)N1C(=O)N(C(C)C)C2(CCN(CC3COc4ccccc4O3)CC2)C1=O (centres undefined)
inactive: [6] 100 % of control | [7] 88 % of control | [8] 94 % of control

CCOc1ccc(Br)cc1/C=N/NS(=O)(=O)c1ccc(C)cc1
inactive: [14] 94 % of control | [11] 97 % of control | [15] 97 % of control | [12] 103 % of control | dose: 400.0 mg/kg/injection, schedule: Q01DX009 (ip), vehicle: saline with Tween-80 101 % of control | [13] 103 % of control

COc1ccc(/C=N/NC(=O)Nc2ccccc2)cc1OC
inactive: dose: 100.0 mg/kg/injection, schedule: Q01DX009 (ip), vehicle: Klucel (hydroxypropylcellulose) (HPC) 98 % of control | dose: 200.0 mg/kg/injection, schedule: Q01DX009 (ip), vehicle: Klucel (hydroxypropylcellulose) (HPC) 89 % of control | dose: 400.0 mg/kg/injection, schedule: Q01DX009 (ip), vehicle: Klucel (hydroxypropylcellulose) (HPC) 93 % of control

CCOC(C#CC1CCCC1)OCC
inactive: dose: 50.0 mg/kg/injection, schedule: Q01DX009 (ip), vehicle: saline with Tween-80 95 % of control | [14] 92 % of control | [15] 100 % of control
